Source: PubChem BioAssay (NCI)
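Results reflect a 48-hour exposure of cells in 96-well plates to compound at five concentrations. TGI is the concentration that stops growth completely.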

Key:
Experiment in all cases: NCI-60 cell line screen, 48 h
786-0 renal = system: 786-0 renal
A549 NSCLC = system: A549 NSCLC
ACHN renal = system: ACHN renal
CAKI-1 renal = system: CAKI-1 renal
CCRF-CEM leukemia = system: CCRF-CEM leukemia
COLO 205 colon = system: COLO 205 colon
DLD-1 colon = system: DLD-1 colon
DMS 114 small cell lung = system: DMS 114 small cell lung
DMS 273 small cell lung = system: DMS 273 small cell lung
EKVX NSCLC = system: EKVX NSCLC
HCT-116 colon = system: HCT-116 colon
HCT-15 colon = system: HCT-15 colon
HL-60(TB) leukemia = system: HL-60(TB) leukemia
HOP-18 NSCLC = system: HOP-18 NSCLC
HOP-62 NSCLC = system: HOP-62 NSCLC
HOP-92 NSCLC = system: HOP-92 NSCLC
HT29 colon = system: HT29 colon
IGROV1 ovarian = system: IGROV1 ovarian
K-562 leukemia = system: K-562 leukemia
KM12 colon = system: KM12 colon
LOX IMVI melanoma = system: LOX IMVI melanoma
LXFL 529 NSCLC = system: LXFL 529 NSCLC
M14 melanoma = system: M14 melanoma
M19-MEL melanoma = system: M19-MEL melanoma
MALME-3M melanoma = system: MALME-3M melanoma
MOLT-4 leukemia = system: MOLT-4 leukemia
NCI-H226 lung = system: NCI-H226 lung
NCI-H23 lung = system: NCI-H23 lung
NCI-H460 lung = system: NCI-H460 lung
NCI-H522 lung = system: NCI-H522 lung
OVCAR-3 ovarian = system: OVCAR-3 ovarian
OVCAR-4 ovarian = system: OVCAR-4 ovarian
OVCAR-5 ovarian = system: OVCAR-5 ovarian
OVCAR-8 ovarian = system: OVCAR-8 ovarian
RPMI-8226 leukemia = system: RPMI-8226 leukemia
RXF 393 renal = system: RXF 393 renal
SF-268 CNS = system: SF-268 CNS
SF-295 CNS = system: SF-295 CNS
SF-539 CNS = system: SF-539 CNS
SK-MEL-28 melanoma = system: SK-MEL-28 melanoma
SK-OV-3 ovarian = system: SK-OV-3 ovarian
SN12C renal = system: SN12C renal
SNB-75 CNS = system: SNB-75 CNS
SNB-78 CNS = system: SNB-78 CNS
SR leukemia = system: SR leukemia
SW-620 colon = system: SW-620 colon
TK-10 renal = system: TK-10 renal
U251 CNS = system: U251 CNS
UACC-62 melanoma = system: UACC-62 melanoma
UO-31 renal = system: UO-31 renal
A498 renal = system: A498 renal
HCC-2998 colon = system: HCC-2998 colon
KM20L2 colon = system: KM20L2 colon
SK-MEL-5 melanoma = system: SK-MEL-5 melanoma
SNB-19 CNS = system: SNB-19 CNS
UACC-257 melanoma = system: UACC-257 melanoma
XF 498 CNS = system: XF 498 CNS
SK-MEL-2 melanoma = system: SK-MEL-2 melanoma

Cc1cc(C)c2c(c1C)CN1CN2Cc2c(C)c(C)cc(C)c21
TGI (786-0 renal): > 100 µM
TGI (A549 NSCLC): > 100 µM
TGI (ACHN renal): > 100 µM
TGI (CAKI-1 renal): > 100 µM
TGI (CCRF-CEM leukemia): > 100 µM
TGI (COLO 205 colon): > 100 µM
TGI (DLD-1 colon): > 100 µM
TGI (DMS 114 small cell lung): 44.1 µM
TGI (DMS 273 small cell lung): > 100 µM
TGI (EKVX NSCLC): > 100 µM
TGI (HCT-116 colon): > 100 µM
TGI (HCT-15 colon): > 100 µM
TGI (HL-60(TB) leukemia): 46.3 µM
TGI (HOP-18 NSCLC): > 100 µM
TGI (HOP-62 NSCLC): > 100 µM
TGI (HOP-92 NSCLC): > 100 µM
TGI (HT29 colon): > 100 µM
TGI (IGROV1 ovarian): > 100 µM
TGI (K-562 leukemia): > 100 µM
TGI (KM12 colon): > 100 µM
TGI (LOX IMVI melanoma): > 100 µM
TGI (LXFL 529 NSCLC): > 100 µM
TGI (M14 melanoma): > 100 µM
TGI (M19-MEL melanoma): > 100 µM
TGI (MALME-3M melanoma): > 100 µM
TGI (MOLT-4 leukemia): > 100 µM
TGI (NCI-H226 lung): > 100 µM
TGI (NCI-H23 lung): > 100 µM
TGI (NCI-H460 lung): > 100 µM
TGI (NCI-H522 lung): > 100 µM
TGI (OVCAR-3 ovarian): > 100 µM
TGI (OVCAR-4 ovarian): > 100 µM
TGI (OVCAR-5 ovarian): > 100 µM
TGI (OVCAR-8 ovarian): > 100 µM
TGI (RPMI-8226 leukemia): > 100 µM
TGI (RXF 393 renal): 93.8 µM
TGI (SF-268 CNS): > 100 µM
TGI (SF-295 CNS): > 100 µM
TGI (SF-539 CNS): > 100 µM
TGI (SK-MEL-28 melanoma): > 100 µM
TGI (SK-OV-3 ovarian): > 100 µM
TGI (SN12C renal): > 100 µM
TGI (SNB-75 CNS): 58.1 µM
TGI (SNB-78 CNS): > 100 µM
TGI (SR leukemia): > 100 µM
TGI (SW-620 colon): > 100 µM
TGI (TK-10 renal): > 100 µM
TGI (U251 CNS): > 100 µM
TGI (UACC-62 melanoma): > 100 µM
TGI (UO-31 renal): > 100 µM

COc1ccc(Br)c(CCCCC(=O)O)c1
TGI (786-0 renal): > 100 µM
TGI (A498 renal): > 100 µM
TGI (A549 NSCLC): > 100 µM
TGI (ACHN renal): > 100 µM
TGI (CAKI-1 renal): > 100 µM
TGI (CCRF-CEM leukemia): > 100 µM
TGI (COLO 205 colon): > 100 µM
TGI (DLD-1 colon): > 100 µM
TGI (DMS 114 small cell lung): > 100 µM
TGI (DMS 273 small cell lung): > 100 µM
TGI (EKVX NSCLC): > 100 µM
TGI (HCC-2998 colon): > 100 µM
TGI (HCT-116 colon): > 100 µM
TGI (HCT-15 colon): > 100 µM
TGI (HL-60(TB) leukemia): > 100 µM
TGI (HOP-18 NSCLC): > 100 µM
TGI (HOP-62 NSCLC): > 100 µM
TGI (HOP-92 NSCLC): 76.3 µM
TGI (HT29 colon): > 100 µM
TGI (IGROV1 ovarian): > 100 µM
TGI (K-562 leukemia): > 100 µM
TGI (KM20L2 colon): > 100 µM
TGI (LOX IMVI melanoma): > 100 µM
TGI (LXFL 529 NSCLC): > 100 µM
TGI (M14 melanoma): > 100 µM
TGI (M19-MEL melanoma): > 100 µM
TGI (MOLT-4 leukemia): > 100 µM
TGI (NCI-H23 lung): > 100 µM
TGI (NCI-H460 lung): > 100 µM
TGI (OVCAR-3 ovarian): > 100 µM
TGI (OVCAR-4 ovarian): > 100 µM
TGI (OVCAR-8 ovarian): > 100 µM
TGI (RPMI-8226 leukemia): > 100 µM
TGI (RXF 393 renal): > 100 µM
TGI (SF-295 CNS): > 100 µM
TGI (SF-539 CNS): > 100 µM
TGI (SK-MEL-28 melanoma): > 100 µM
TGI (SK-MEL-5 melanoma): > 100 µM
TGI (SK-OV-3 ovarian): > 100 µM
TGI (SN12C renal): > 100 µM
TGI (SNB-19 CNS): > 100 µM
TGI (SNB-75 CNS): > 100 µM
TGI (SNB-78 CNS): > 100 µM
TGI (SW-620 colon): > 100 µM
TGI (TK-10 renal): > 100 µM
TGI (U251 CNS): > 100 µM
TGI (UACC-257 melanoma): > 100 µM
TGI (UACC-62 melanoma): > 100 µM
TGI (XF 498 CNS): > 100 µM

O=[N+]([O-])c1ccc(N=Nc2c(O)[nH]c3ccc(Br)cc23)c([N+](=O)[O-])c1
TGI (786-0 renal): 13.2 µM
TGI (A549 NSCLC): 20.4 µM
TGI (ACHN renal): 9.44 µM
TGI (CAKI-1 renal): 27.2 µM
TGI (CCRF-CEM leukemia): 9.3 µM
TGI (COLO 205 colon): 5.92 µM
TGI (DLD-1 colon): 20.4 µM
TGI (EKVX NSCLC): 33.7 µM
TGI (HCC-2998 colon): 23.4 µM
TGI (HCT-116 colon): 3.09 µM
TGI (HCT-15 colon): 11.6 µM
TGI (HL-60(TB) leukemia): 4.77 µM
TGI (HOP-18 NSCLC): 4.69 µM
TGI (HOP-62 NSCLC): 21 µM
TGI (HOP-92 NSCLC): 5.1 µM
TGI (HT29 colon): > 100 µM
TGI (IGROV1 ovarian): 45.7 µM
TGI (K-562 leukemia): 15.5 µM
TGI (KM12 colon): 79.6 µM
TGI (KM20L2 colon): 13.4 µM
TGI (LOX IMVI melanoma): 3.17 µM
TGI (LXFL 529 NSCLC): 13.9 µM
TGI (M14 melanoma): 21.2 µM
TGI (M19-MEL melanoma): 9.91 µM
TGI (MALME-3M melanoma): 15 µM
TGI (MOLT-4 leukemia): 26.2 µM
TGI (NCI-H23 lung): 8.28 µM
TGI (NCI-H522 lung): 8.35 µM
TGI (OVCAR-3 ovarian): 19.3 µM
TGI (OVCAR-8 ovarian): 18.9 µM
TGI (RPMI-8226 leukemia): 9.84 µM
TGI (RXF 393 renal): 15.3 µM
TGI (SF-268 CNS): 16.6 µM
TGI (SF-295 CNS): 14.8 µM
TGI (SK-MEL-2 melanoma): 8.04 µM
TGI (SK-MEL-28 melanoma): 10.3 µM
TGI (SK-MEL-5 melanoma): 3.49 µM
TGI (SK-OV-3 ovarian): 34.7 µM
TGI (SN12C renal): 11.4 µM
TGI (SNB-19 CNS): 17.1 µM
TGI (SNB-75 CNS): 11.5 µM
TGI (SNB-78 CNS): > 100 µM
TGI (SR leukemia): 10.5 µM
TGI (SW-620 colon): 11.7 µM
TGI (TK-10 renal): 37.8 µM
TGI (U251 CNS): 16.3 µM
TGI (UACC-257 melanoma): 15.6 µM
TGI (UACC-62 melanoma): 16.2 µM
TGI (UO-31 renal): 7.14 µM

O=C1NCC2=C1CCC1c3ccccc3CCN21 (stereo not given)
TGI (786-0 renal): > 100 µM
TGI (A498 renal): > 100 µM
TGI (A549 NSCLC): > 100 µM
TGI (ACHN renal): > 100 µM
TGI (CAKI-1 renal): > 100 µM
TGI (CCRF-CEM leukemia): > 100 µM
TGI (COLO 205 colon): > 100 µM
TGI (DLD-1 colon): > 100 µM
TGI (DMS 114 small cell lung): > 100 µM
TGI (DMS 273 small cell lung): > 100 µM
TGI (EKVX NSCLC): > 100 µM
TGI (HCC-2998 colon): > 100 µM
TGI (HCT-116 colon): > 100 µM
TGI (HCT-15 colon): > 100 µM
TGI (HL-60(TB) leukemia): > 100 µM
TGI (HOP-92 NSCLC): > 100 µM
TGI (HT29 colon): > 100 µM
TGI (IGROV1 ovarian): > 100 µM
TGI (KM12 colon): > 100 µM
TGI (KM20L2 colon): > 100 µM
TGI (LOX IMVI melanoma): > 100 µM
TGI (LXFL 529 NSCLC): > 100 µM
TGI (M19-MEL melanoma): > 100 µM
TGI (MALME-3M melanoma): > 100 µM
TGI (MOLT-4 leukemia): > 100 µM
TGI (NCI-H226 lung): > 100 µM
TGI (NCI-H23 lung): > 100 µM
TGI (NCI-H460 lung): > 100 µM
TGI (NCI-H522 lung): > 100 µM
TGI (OVCAR-3 ovarian): > 100 µM
TGI (OVCAR-5 ovarian): > 100 µM
TGI (OVCAR-8 ovarian): > 100 µM
TGI (RXF 393 renal): > 100 µM
TGI (SF-268 CNS): > 100 µM
TGI (SF-295 CNS): > 100 µM
TGI (SF-539 CNS): > 100 µM
TGI (SK-MEL-2 melanoma): > 100 µM
TGI (SK-MEL-28 melanoma): > 100 µM
TGI (SK-MEL-5 melanoma): > 100 µM
TGI (SK-OV-3 ovarian): > 100 µM
TGI (SN12C renal): > 100 µM
TGI (SNB-19 CNS): > 100 µM
TGI (SNB-75 CNS): > 100 µM
TGI (SNB-78 CNS): > 100 µM
TGI (SR leukemia): > 100 µM
TGI (SW-620 colon): > 100 µM
TGI (TK-10 renal): > 100 µM
TGI (U251 CNS): > 100 µM
TGI (UACC-257 melanoma): > 100 µM
TGI (UACC-62 melanoma): > 100 µM
TGI (UO-31 renal): > 100 µM
TGI (XF 498 CNS): > 100 µM
